# Results published in PMC9268153 (2022).
# Legend:
# [1] = test system: ds-oligo (DNA, duplex) GGGAGGTTTCGC/GCGAAACCTCCC; experiment: UV-Vis titration, Scatchard; conditions: 100 mM KCl; 50 mM Tris-HCl pH 7.4, 25 °C
# [2] = test system: c-kit (DNA, G4) AGGGAGGGCGCTGGGAGGAGGG; experiment: CD spectral change; conditions: 100 mM KCl; 50 mM Tris-HCl pH 7.4, 25 °C; 1.5 μM DNA, up to 4.5 μM compound
# [3] = test system: Telomere G1 (Telomere G4) (DNA, G4) TAGGGTTAGGGTTAGGGTTAGGG; experiment: UV-Vis titration, Scatchard; conditions: 100 mM KCl; 50 mM Tris-HCl pH 7.4, 25 °C
# [4] = test system: c-myc AP sites (DNA, G4, abasic (d-spacer) at 7 and 16) TGAGGGNGGGGAGGGNGGGGAA; experiment: ITC; conditions: 50 mM potassium phosphate (K+); 50 mM KH2PO4-K2HPO4 pH 7.0, 25 °C
# [5] = test system: G1-r12nt (RNA, G4) UAGGGUUAGGGU; experiment: CD melting; conditions: 100 mM KCl; 50 mM KH2PO4-K2HPO4 pH 7.0; 4.5 μM compound, 1.5 μM nucleic acid
# [6] = test system: Telomere G1 (Telomere G4) (DNA, G4) TAGGGTTAGGGTTAGGGTTAGGG; experiment: ITC; conditions: 50 mM potassium phosphate (K+), 50 mM KH2PO4-K2HPO4 pH 7.0, 25 °C; for binding: n.d. (not detected), titrant up to 100 μM
# [7] = test system: Telomere G1 (Telomere G4) (DNA, G4) TAGGGTTAGGGTTAGGGTTAGGG; experiment: CD melting; conditions: 100 mM KCl; 50 mM Tris-HCl pH 7.4; 4.5 μM compound, 1.5 μM nucleic acid
# [8] = test system: G1-r23nt (RNA, G4) UAGGGUUAGGGUUAGGGUUAGGG; experiment: CD melting; conditions: 5 mM KCl; 50 mM Tris-HCl pH 7.4; 4.5 μM compound, 1.5 μM nucleic acid
# [9] = test system: G1-r23nt (RNA, G4) UAGGGUUAGGGUUAGGGUUAGGG; experiment: ITC; conditions: 50 mM potassium phosphate (K+); 50 mM KH2PO4-K2HPO4 pH 7.0, 25 °C
# [10] = test system: G1-r12nt (RNA, G4) UAGGGUUAGGGU; experiment: ITC; conditions: 50 mM potassium phosphate (K+); 50 mM KH2PO4-K2HPO4 pH 7.0, 25 °C
# [11] = test system: ds-oligo (DNA, duplex) GGGAGGTTTCGC/GCGAAACCTCCC; experiment: ITC; conditions: 50 mM potassium phosphate (K+); 50 mM KH2PO4-K2HPO4 pH 7.0, 25 °C; undetectable
Ka [1],binding [2],Ka [3],Ka [4],ΔTm [5] [°C],Ka [6],ΔTm [7] [°C],ΔTm [8] [°C],Ka [9],binding [10],binding [11],binding [6],Structure (SMILES)
3.9 ± 0.1 × 10^5 M^-1,yes,9.5 ± 0.9 × 10^5 M^-1,2.9 ± 0.2 × 10^5 M^-1,6.1 ± 0.4,9.5 ± 0.6 × 10^5 M^-1,5.1 ± 1.1,19.9 ± 0.1,–,–,–,–,CN(C)CCCN1C(=O)c2ccc3c4c(ccc(c24)C1=O)C(=O)N(CCCN(C)C)C3=O
–,–,–,2.2 ± 0.3 × 10^5 M^-1,2.1 ± 0.9,–,< 0.5,10.3 ± 0.3,19.0 ± 2.2 × 10^5 M^-1,yes,no,no,CN(CCCN1C(=O)c2ccc3c4c(ccc(c24)C1=O)C(=O)N(CCCN(C)C[C@H]1O[C@@H]2O[C@H]4[C@H](O)[C@@H](O)[C@@H](O[C@H]5[C@H](O)[C@@H](O)[C@@H](O[C@H]6[C@H](O)[C@@H](O)[C@@H](O[C@H]7[C@H](O)[C@@H](O)[C@@H](O[C@H]8[C@H](O)[C@@H](O)[C@@H](O[C@H]9[C@H](O)[C@@H](O)[C@@H](O[C@H]1[C@H](O)[C@H]2O)O[C@@H]9CO)O[C@@H]8CO)O[C@@H]7CO)O[C@@H]6CO)O[C@@H]5CO)O[C@@H]4CO)C3=O)C[C@H]1O[C@@H]2O[C@H]3[C@H](O)[C@@H](O)[C@@H](O[C@H]4[C@H](O)[C@@H](O)[C@@H](O[C@H]5[C@H](O)[C@@H](O)[C@@H](O[C@H]6[C@H](O)[C@@H](O)[C@@H](O[C@H]7[C@H](O)[C@@H](O)[C@@H](O[C@H]8[C@H](O)[C@@H](O)[C@@H](O[C@H]1[C@H](O)[C@H]2O)O[C@@H]8CO)O[C@@H]7CO)O[C@@H]6CO)O[C@@H]5CO)O[C@@H]4CO)O[C@@H]3CO
–,–,–,2.0 ± 0.8 × 10^5 M^-1,< 0.5,–,< 0.5,10.6 ± 0.6,12.3 ± 2.2 × 10^5 M^-1,yes,no,no,O=C(CN1C(=O)c2ccc3c4c(ccc(c24)C1=O)C(=O)N(CC(=O)NCCNC[C@H]1O[C@@H]2O[C@H]4[C@H](O)[C@@H](O)[C@@H](O[C@H]5[C@H](O)[C@@H](O)[C@@H](O[C@H]6[C@H](O)[C@@H](O)[C@@H](O[C@H]7[C@H](O)[C@@H](O)[C@@H](O[C@H]8[C@H](O)[C@@H](O)[C@@H](O[C@H]9[C@H](O)[C@@H](O)[C@@H](O[C@H]1[C@H](O)[C@H]2O)O[C@@H]9CO)O[C@@H]8CO)O[C@@H]7CO)O[C@@H]6CO)O[C@@H]5CO)O[C@@H]4CO)C3=O)NCCNC[C@H]1O[C@@H]2O[C@H]3[C@H](O)[C@@H](O)[C@@H](O[C@H]4[C@H](O)[C@@H](O)[C@@H](O[C@H]5[C@H](O)[C@@H](O)[C@@H](O[C@H]6[C@H](O)[C@@H](O)[C@@H](O[C@H]7[C@H](O)[C@@H](O)[C@@H](O[C@H]8[C@H](O)[C@@H](O)[C@@H](O[C@H]1[C@H](O)[C@H]2O)O[C@@H]8CO)O[C@@H]7CO)O[C@@H]6CO)O[C@@H]5CO)O[C@@H]4CO)O[C@@H]3CO
